In patent publication US5622947A, “Benzoheterocyclic compounds and vasopressin antagonist and oxytocin antagonist compositions containing a benzoheterocyclic compound” (Otsuka Pharmaceutical Co., Ltd., priority 1992, dated 1997):
Where a name gives a salt, the structure may show the parent alone.

What was measured:
[1] = biological target: T1, V2 Recepter (rat kidney plasma membrane preparations) (Rattus norvegicus, UniProt Q00788); assay: V2 Recepter binding assay; details: [3H]-Arg-vasopressin 4×10^-10 M, 4° C., pH 8.0, rat kidney plasma membrane
T1 construct: rat kidney plasma membrane preparations; from tissue; host or cells: rat kidney plasma membranes
T1 sequence (Q00788 whole entry): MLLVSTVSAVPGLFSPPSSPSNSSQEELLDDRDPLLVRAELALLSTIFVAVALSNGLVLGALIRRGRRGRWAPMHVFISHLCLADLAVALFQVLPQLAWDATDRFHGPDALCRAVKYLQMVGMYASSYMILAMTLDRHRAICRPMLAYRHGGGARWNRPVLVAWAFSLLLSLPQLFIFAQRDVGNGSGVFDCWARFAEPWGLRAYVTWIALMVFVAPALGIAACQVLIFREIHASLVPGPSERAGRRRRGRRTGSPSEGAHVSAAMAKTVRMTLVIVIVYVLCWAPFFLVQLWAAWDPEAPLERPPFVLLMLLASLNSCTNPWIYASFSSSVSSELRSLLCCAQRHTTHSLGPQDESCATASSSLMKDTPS
Method in brief: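 Rat kidney plasma membranes incubated with [^3H]-Arg-vasopressin (4×10^-10 M) and test compound (10^-10 to 10^-5 M) for 3 h at 4 °C in 100 mM Tris-HCl pH 8.0 with 5 mM MgCl2, 1 mM EDTA, 0.1% BSA. Bound label by filtration and scintillation counting; nonspecific binding with 10^-6 M vasopressin; IC50 reported.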

[2] = biological target: T2, Oxytocin receptor (uterin muscle membrane preparation) (Rattus norvegicus, UniProt P70536); assay: Oxytocin receptor binding assay; details: [3H]-oxytocin 10^-9 M, 25°, one hour, pH 8.0, uterin muscle membrane, DES-treated
T2 construct: was homogenized, which was used as a membrane; from tissue; host or cells: uterine muscle membranes from diethylstilbestrol-treated animals
T2 sequence (P70536 1-388): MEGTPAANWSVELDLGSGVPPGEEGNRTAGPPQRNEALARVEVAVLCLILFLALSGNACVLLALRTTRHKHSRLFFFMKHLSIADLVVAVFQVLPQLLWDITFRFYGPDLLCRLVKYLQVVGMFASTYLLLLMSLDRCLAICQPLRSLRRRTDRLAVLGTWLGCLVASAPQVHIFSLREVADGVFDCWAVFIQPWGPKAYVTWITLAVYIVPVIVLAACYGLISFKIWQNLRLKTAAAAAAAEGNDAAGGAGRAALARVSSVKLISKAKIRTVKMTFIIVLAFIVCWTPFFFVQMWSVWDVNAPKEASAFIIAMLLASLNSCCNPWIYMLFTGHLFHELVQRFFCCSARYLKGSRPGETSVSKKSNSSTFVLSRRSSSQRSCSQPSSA
Method in brief: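 Rat uterine membranes (0.2 mg; DES-primed day before) incubated 1 h at 25° with [3H]-oxytocin (10^-9 M) and compound (10^-9 to 10^-5 M) in 100 mM Tris-HCl pH 8.0, 5 mM MgCl2, 1 mM EDTA, 0.1% BSA. Filter-bound radioactivity counted; nonspecific with 5×10^-6 M oxytocin; IC50 reported.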

[3] = biological target: T3, V1 Recepter (rat liver plasma membrane preparations) (Rattus norvegicus, UniProt P30560); assay: V1 Recepter binding assay; details: [3H]-Arg-vasopressin 2×10^-10 M, 37° C., 10 minutes, pH 8.0, rat liver plasma membrane
T3 construct: rat liver plasma membrane preparations; from tissue; host or cells: rat liver plasma membranes
T3 sequence (P30560 whole entry): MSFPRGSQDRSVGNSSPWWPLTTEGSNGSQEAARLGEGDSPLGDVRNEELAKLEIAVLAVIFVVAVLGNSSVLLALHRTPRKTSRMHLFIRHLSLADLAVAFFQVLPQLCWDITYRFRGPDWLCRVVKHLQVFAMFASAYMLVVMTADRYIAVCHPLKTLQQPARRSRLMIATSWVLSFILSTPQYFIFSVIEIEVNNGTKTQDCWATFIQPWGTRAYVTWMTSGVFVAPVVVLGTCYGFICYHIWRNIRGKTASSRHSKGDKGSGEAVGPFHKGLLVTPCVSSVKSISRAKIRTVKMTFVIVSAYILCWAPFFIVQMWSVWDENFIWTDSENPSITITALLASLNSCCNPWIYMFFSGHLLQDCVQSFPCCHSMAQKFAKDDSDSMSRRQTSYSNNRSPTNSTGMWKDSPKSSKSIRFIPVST
Method in brief: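 Rat liver plasma membranes incubated with [3H]-Arg-vasopressin (2×10^-10 M) and compound (10^-8 to 10^-4 M) for 10 min at 37° C in Tris-HCl pH 8.0 with MgCl2, EDTA, BSA. Bound label separated by glass-fibre filtration, scintillation counted; nonspecific binding with 10^-6 M vasopressin; IC50 reported.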

Structure (SMILES)	IC50 [1] [nM]	IC50 [2] [nM]	IC50 [3] [nM]
COc1cc(NC(=O)c2ccccc2Cl)ccc1C(=O)N1CCCC(OCCNC(N)=O)c2cc(Cl)ccc21 (stereo not drawn) [Example 136, 5-(2-Ureidoethoxy)-7-chloro-1-[2-methoxy-4-(2-chlorobenzoylamino)benzoyl]-2,3,4,5-tetrahydro-1H-benzoazepine]	4.3	151	37
COc1cc(NC(=O)c2ccccc2Cl)ccc1C(=O)N1CCCC(CC(=O)NCCN(C)CCO)c2cc(Cl)ccc21 (stereo not drawn) [Example 160, 5-{2-[N-(2-Hydroxyethyl)-N-methylamino]ethyl}-aminocarbonylmethyl-7-chloro-1-[2-methoxy-4-(2-chlorobenzoylamino)benzoyl]-2,3,4,5-tetrahydro-1H-benzoazepine]	3.3	84	6
COc1cc(NC(=O)c2ccccc2Cl)ccc1C(=O)N1CCCC(CC(=O)N2CCCN(C)CC2)c2cc(Cl)ccc21 (stereo not drawn) [Example 125, 5-(4-Methyl-1-homopiperazinyl)carbonylmethyl-7-chloro-1-[2-methoxy-4-(2-chlorobenzoylamino)benzoyl]-2,3,4,5-tetrahydro-1H-benzoazepine]	4	37	8
CCOC(=O)NCCOC1CCCN(C(=O)c2ccc(NC(=O)c3ccccc3Cl)cc2OC)c2ccc(Cl)cc21 (stereo not drawn) [Example 137, 5-(2-Ethoxycarbonylaminoethoxy)-7-chloro-1-[2-methoxy-4-(2-chlorobenzoylamino)benzoyl]-2,3,4,5-tetrahydro-1H-benzoazepine]	5	451	17
C=CCN1CCN(C(=O)CC2CCCN(C(=O)c3ccc(NC(=O)c4ccccc4Cl)cc3OC)c3ccc(Cl)cc32)CC1 (stereo not drawn) [Example 81, 5-(4-Allyl-1-piperazinyl)carbonylmethyl-7-chloro-1-[2-methoxy-4-(2-chlorobenzoylamino)benzoyl]-2,3,4,5-tetrahydro-1H-benzoazepine]	10	100	23
C#CCNCCOC1CCCN(C(=O)c2ccc(NC(=O)c3ccccc3Cl)cc2OC)c2ccc(Cl)cc21 (stereo not drawn) [Example 170, 5-(2-Propargylaminoethoxy)-7-chloro-1-[2-methoxy-4-(2-chlorobenzoylamino)benzoyl]-2,3,4,5-tetrahydro-1H-benzoazepine.cndot.hydrochloride]	7	416	24
CNC(=O)N1CCN(CCC2CCCN(C(=O)c3ccc(NC(=O)c4ccccc4Cl)cc3OC)c3ccc(Cl)cc32)CC1 (stereo not drawn) [Example 148, 5-[2-(4-Methylaminocarbonyl-1-piperazinyl)ethyl]-7-chloro-1-[2-methoxy-4-(2-chlorobenzoylamino)benzoyl]-2,3,4,5-tetrahydro-1H-benzoazepine]	5	225	54
COc1cc(NC(=O)c2ccccc2Cl)ccc1C(=O)N1CCCC(OCCNC(C)=N)c2cc(Cl)ccc21 (stereo not drawn) [Example 135, 5-[2-(1-Iminoethyl)aminoethoxy]-7-chloro-1-[2-methoxy-4-(2-chlorobenzoylamino)benzoyl]-2,3,4,5-tetrahydro-1H-benzoazepine.cndot.hydrochloride]	4.9	146	18

Continued by falling IC50 [1], values first:

IC50 [1] [nM]	IC50 [2] [nM]	IC50 [3] [nM]	Structure (SMILES)
49	72	20	CNC(=S)NCCOC1CCCN(C(=O)c2ccc(NC(=O)c3ccccc3Cl)cc2OC)c2ccc(Cl)cc21 (stereo not drawn) [Example 133, 5-(2-Methylaminothiocarbonylaminoethoxy)-7-chloro-1-[2-methoxy-4-(2-chlorobenzoylamino)benzoyl]-2,3,4,5-tetrahydro-1H-benzoazepine]
19	85	10	COc1cc(C(=O)N2CCCC(OCC(=O)NCCN3CCOCC3)c3cc(Cl)ccc32)ccc1NC(=O)c1ccccc1Br (stereo not drawn) [Example 168, 5-(2-Morpholinoethyl)aminocarbonylmethoxy-7-chloro-1-[3-methoxy-4-(2-bromobenzoylamino)benzoyl]-2,3,4,5-tetrahydro-1H-benzoazepine]
14	849	91	COc1cc(NC(=O)c2ccccc2Cl)ccc1C(=O)N1CCCC(OCCS(=O)(=O)c2ncc[nH]2)c2cc(Cl)ccc21 (stereo not drawn) [Example 145, 5-[2-(2-Imidazolyl)sulfonylethoxy]-7-chloro-1-[2-methoxy-4-(2-chlorobenzoylamino)benzoyl]-2,3,4,5-tetrahydro-1H-benzoazepine]
13	95	14	CCN1CCN(C(=O)COC2CCCN(C(=O)c3ccc(N4CCc5ccccc5C4=O)cc3)c3ccc(Cl)cc32)CC1 (stereo not drawn) [Example 128, 5-(4-Ethyl-1-piperazinyl)carbonylmethoxy-7-chloro-1-[4-(1-oxo-1,2,3,4-tetrahydroisoquinolin-2-yl)benzoyl]-2,3,4,5-tetrahydro-1H-benzoazepine]
12	197	21	COc1cc(NC(=O)c2ccccc2Cl)ccc1C(=O)N1CCCC(CC(=O)NCCc2cccn2C)c2cc(Cl)ccc21 (stereo not drawn) [Example 154, 5-[2-(1-Methyl-2-pyrrolyl)ethyl]aminocarbonyl-methyl-7-chloro-1-[2-methoxy-4-(2-chlorobenzoylamino)benzoyl]-2,3,4,5-tetrahydro-1H-benzoazepine]
9.9	354	55	COc1cc(NC(=O)c2ccccc2Cl)ccc1C(=O)N1CCCC(OCC[S+]([O-])c2ncc[nH]2)c2cc(Cl)ccc21 (stereo not drawn) [Example 144, 5-[2-(2-Imidazolyl)sulfinylethoxy]-7-chloro-1-[2-methoxy-4-(2-chlorobenzoylamino)benzoyl] 2,3,4,5-tetrahydro-1H-benzoazepine]
9	84	16	COc1cc(NC(=O)c2ccccc2Cl)ccc1C(=O)N1CCCC(CC(=O)N2CCN(CC#N)CC2)c2cc(Cl)ccc21 (stereo not drawn) [Example 80, 5-(4-Cyanomethyl-1-piperazinyl)carbonylmethyl 7-chloro-1-[2-methoxy-4-(2-chlorobenzoylamino)benzoyl]-2,3,4,5-tetrahydro-1H-benzoazepine]
5.6	147	7	C=CCNCCOC1CCCN(C(=O)c2ccc(NC(=O)c3ccccc3Cl)cc2OC)c2ccc(Cl)cc21 (stereo not drawn) [Example 169, 5-(2-Allylaminoethoxy)-7-chloro-1-[2-methoxy-4-(2-chlorobenzoylamino)benzoyl]-2,3,4,5-tetrahydro-1H-benzoazepine.cndot.hydrochloride]
4	32	23	COc1cc(NC(=O)c2ccccc2Cl)ccc1C(=O)N1CCCC(CC(=O)Nc2ccncc2)c2cc(Cl)ccc21 (stereo not drawn) [Example 127, 5-(4-Pyridyl)aminocarbonylmethyl-7-chloro-1-[2-methoxy-4-(2-chlorobenzoylamino)benzoyl]-2,3,4,5-tetrahydro-1H-benzoazepine]
3.9	133	5	COc1cc(NC(=O)c2ccccc2Cl)ccc1C(=O)N1CCCC(OCCNS(C)(=O)=O)c2cc(Cl)ccc21 (stereo not drawn) [Example 172, 5-(2-Methanesulfonylaminoethoxy)-7-chloro-1-[2-methoxy-4-(2-chlorobenzoylamino)benzoyl]-2,3,4,5-tetrahydro-1H-benzoazepine]
